Measured values taken from US20090118336A1, “PYRAZOLE DERIVATIVES AND THEIR USE AS PI3K INHIBITORS” (priority 2006, published 2009).

Columns and labels:
p110α Type Ia human PI3K = biological target: T1, p110α Type Ia human PI3K (Homo sapiens, UniProt P42336); experiment: In vitro PI3K enzyme assay (AlphaScreen), Test (a); format: biochemical; settings: recombinant enzyme, PI(4,5)P2 substrate, ATP 4 μM, read-out: IC50 versus p110α Type Ia human PI3K
T1 construct: full length DNA of each of the p110α, p110β and p110δ Type Ia human PI3K p110 isoforms; 6-His; made in house
From the text: (a) In Vitro PI3K Enzyme Assay
The assay used AlphaScreen technology (Gray et al., Analytical Biochemistry, 2003, 313: 234-245) to determine the ability of test compounds to inhibit phosphorylation by recombinant Type I PI3K enzymes of the lipid PI(4,5)P2.
DNA fragments encoding human PI3K catalytic and regulatory subunits were isolated from cDNA libraries using standard molecular biology and PCR cloning techniques. The selected DNA fragments were used to generate baculovirus expression vectors. In particular, full length DNA of each of the p110α, p110β and p110δ Type Ia human PI3K p110 isoforms (EMBL Accession Nos. HSU79143, S67334, Y10055 for p110α, p110β and p110δ respectively) were sub-cloned into a pDEST10 vector (Invitrogen Limited, Fountain Drive, Paisley, UK). The vector is a Gateway-adapted version of Fastbac1 containing a 6-His epitope tag. […]
Biotinylated-DiC8-PI(3,4,5)P3 ([…]; Cell Signals Inc., Catalogue No. 107), recombinant purified GST-Grp1 PH protein (2.5 nM) and AlphaScreen Anti-GST donor and acceptor beads (100 ng; Packard Bioscience Limited, Station Road, Pangbourne, Berkshire, UK, Catalogue No. 6760603M) were added and the assay plates were left for about 5 to 20 hours at room temperature in the dark. The resultant signals arising from laser light excitation at 680 nm were read using a Packard AlphaQuest instrument. […]

[1] = biological target: mTOR PI kinase-related kinase (Homo sapiens, UniProt P42345); experiment: In vitro mTOR PI kinase-related kinase assay (AlphaScreen), Test (b); format: biochemical; settings: recombinant mTOR (1362-2549), ATP 20 μM, read-out: IC50 versus mTOR PI kinase-related kinase
Procedure: (b) In Vitro mTOR PI Kinase-Related Kinase Assay
The assay used AlphaScreen technology (Gray et al., Analytical Biochemistry, 2003, 313: 234-245) to determine the ability of test compounds to inhibit phosphorylation by recombinant mTOR. […]
Each reaction was stopped by the addition of 10 μl of a mixture of EDTA (50 mM), bovine serum albumin (BSA; 0.5 mg/ml) and Tris-HCl pH7.4 buffer (50 mM) containing p70 S6 Kinase (T389) 1A5 Monoclonal Antibody (Cell Signalling Technology, Catalogue No. 9206B) and AlphaScreen Streptavidin donor and Protein A acceptor beads (200 ng; Perkin Elmer, Catalogue No. 6760002B and 6760137R respectively) were added and the assay plates were left for about 20 hours at room temperature in the dark. The resultant signals arising from laser light excitation at 680 nm were read using a Packard Envision instrument.
Phosphorylated biotinylated peptide is formed in situ as a result of mTOR mediated phosphorylation. […] Upon laser light excitation at 680 nm, the donor bead: acceptor bead complex produces a signal that can be measured. […]
mTOR enzyme inhibition for a given test compound was expressed as an IC50 value.

Chain of mTOR PI kinase-related kinase (P42345 1362-2549): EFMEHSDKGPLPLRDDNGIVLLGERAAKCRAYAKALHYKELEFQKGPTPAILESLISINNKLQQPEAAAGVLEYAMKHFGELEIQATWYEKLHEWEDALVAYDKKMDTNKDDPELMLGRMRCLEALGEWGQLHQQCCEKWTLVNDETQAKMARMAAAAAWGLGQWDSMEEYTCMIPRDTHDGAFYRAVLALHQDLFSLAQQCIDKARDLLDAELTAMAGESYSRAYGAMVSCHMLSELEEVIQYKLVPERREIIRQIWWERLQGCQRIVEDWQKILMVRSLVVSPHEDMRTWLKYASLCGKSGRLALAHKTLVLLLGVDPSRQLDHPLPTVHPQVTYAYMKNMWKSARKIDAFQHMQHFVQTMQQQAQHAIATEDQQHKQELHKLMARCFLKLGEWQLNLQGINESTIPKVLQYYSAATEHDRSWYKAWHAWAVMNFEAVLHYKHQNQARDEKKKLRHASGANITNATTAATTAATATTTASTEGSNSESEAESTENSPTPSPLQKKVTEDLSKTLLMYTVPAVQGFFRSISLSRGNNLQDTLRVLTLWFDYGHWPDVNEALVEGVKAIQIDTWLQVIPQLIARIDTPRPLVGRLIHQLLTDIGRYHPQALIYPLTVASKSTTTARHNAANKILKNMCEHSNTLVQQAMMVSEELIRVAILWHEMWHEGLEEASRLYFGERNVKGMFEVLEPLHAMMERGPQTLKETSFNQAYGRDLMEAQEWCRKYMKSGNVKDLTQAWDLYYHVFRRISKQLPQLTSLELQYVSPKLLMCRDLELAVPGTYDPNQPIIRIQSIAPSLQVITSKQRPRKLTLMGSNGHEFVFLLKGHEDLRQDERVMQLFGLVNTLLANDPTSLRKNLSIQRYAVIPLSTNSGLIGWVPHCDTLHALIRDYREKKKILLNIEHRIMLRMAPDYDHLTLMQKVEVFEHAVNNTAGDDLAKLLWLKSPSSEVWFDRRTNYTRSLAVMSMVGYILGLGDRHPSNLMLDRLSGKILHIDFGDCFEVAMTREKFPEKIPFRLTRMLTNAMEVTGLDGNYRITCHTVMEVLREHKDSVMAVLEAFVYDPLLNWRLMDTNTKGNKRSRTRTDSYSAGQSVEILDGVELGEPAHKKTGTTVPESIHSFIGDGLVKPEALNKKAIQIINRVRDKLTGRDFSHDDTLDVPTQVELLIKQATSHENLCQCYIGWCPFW
T1 sequence (P42336 whole entry, canonical isoform): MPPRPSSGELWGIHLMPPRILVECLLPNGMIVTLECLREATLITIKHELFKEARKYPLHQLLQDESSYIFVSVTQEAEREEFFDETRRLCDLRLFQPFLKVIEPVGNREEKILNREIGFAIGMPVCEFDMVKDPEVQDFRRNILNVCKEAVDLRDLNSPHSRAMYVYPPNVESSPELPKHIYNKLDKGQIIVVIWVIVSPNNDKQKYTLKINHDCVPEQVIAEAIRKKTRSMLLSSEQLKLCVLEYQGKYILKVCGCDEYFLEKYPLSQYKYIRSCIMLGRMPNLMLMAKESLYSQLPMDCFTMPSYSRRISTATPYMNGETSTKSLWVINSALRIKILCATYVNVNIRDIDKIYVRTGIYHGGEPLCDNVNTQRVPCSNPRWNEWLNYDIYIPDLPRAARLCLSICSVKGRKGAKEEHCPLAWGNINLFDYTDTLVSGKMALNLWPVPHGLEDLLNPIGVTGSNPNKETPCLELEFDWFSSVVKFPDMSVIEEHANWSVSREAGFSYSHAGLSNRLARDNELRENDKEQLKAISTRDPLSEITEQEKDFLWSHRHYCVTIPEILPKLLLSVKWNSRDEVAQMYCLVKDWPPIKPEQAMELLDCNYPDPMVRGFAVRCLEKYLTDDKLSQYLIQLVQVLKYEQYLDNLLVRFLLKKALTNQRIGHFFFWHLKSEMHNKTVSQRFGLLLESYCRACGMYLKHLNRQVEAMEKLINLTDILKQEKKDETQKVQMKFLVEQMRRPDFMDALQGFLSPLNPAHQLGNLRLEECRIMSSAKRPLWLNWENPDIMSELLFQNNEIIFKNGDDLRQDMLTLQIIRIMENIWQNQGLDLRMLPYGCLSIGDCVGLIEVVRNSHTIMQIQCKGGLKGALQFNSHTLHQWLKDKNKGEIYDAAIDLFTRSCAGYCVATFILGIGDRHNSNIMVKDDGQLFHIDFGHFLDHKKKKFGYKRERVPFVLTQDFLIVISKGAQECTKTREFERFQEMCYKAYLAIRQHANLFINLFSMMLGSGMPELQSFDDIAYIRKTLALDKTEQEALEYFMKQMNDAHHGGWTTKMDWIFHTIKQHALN
T1 sequence (P27986 whole entry partner, canonical isoform): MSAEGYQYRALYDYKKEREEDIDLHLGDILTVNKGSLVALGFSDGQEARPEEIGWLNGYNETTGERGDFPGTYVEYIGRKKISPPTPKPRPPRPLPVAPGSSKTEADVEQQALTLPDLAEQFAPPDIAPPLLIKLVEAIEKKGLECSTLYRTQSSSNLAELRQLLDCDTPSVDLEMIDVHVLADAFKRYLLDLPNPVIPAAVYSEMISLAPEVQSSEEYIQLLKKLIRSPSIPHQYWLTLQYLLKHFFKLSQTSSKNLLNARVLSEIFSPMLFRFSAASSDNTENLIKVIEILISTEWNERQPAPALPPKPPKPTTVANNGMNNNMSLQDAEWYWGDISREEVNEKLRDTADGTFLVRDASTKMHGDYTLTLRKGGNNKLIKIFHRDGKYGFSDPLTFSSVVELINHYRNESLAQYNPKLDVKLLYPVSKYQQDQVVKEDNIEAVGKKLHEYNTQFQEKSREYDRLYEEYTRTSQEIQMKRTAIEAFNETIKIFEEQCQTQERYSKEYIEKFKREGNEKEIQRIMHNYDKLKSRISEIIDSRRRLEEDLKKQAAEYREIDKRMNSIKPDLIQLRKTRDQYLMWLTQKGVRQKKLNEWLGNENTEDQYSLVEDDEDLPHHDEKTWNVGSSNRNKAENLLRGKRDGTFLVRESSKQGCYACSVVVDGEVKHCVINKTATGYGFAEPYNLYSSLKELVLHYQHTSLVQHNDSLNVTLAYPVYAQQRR

Row | SMILES | IC50 (p110α Type Ia human PI3K) [nM] | IC50 [1] [µM]
1 | CC(=O)Nc1cc(-c2cncc(NS(C)(=O)=O)c2)n(C)n1 [Example 1, N-[5-(5-methanesulphonamidopyridin-3-yl)-1-methyl-1H-pyrazol-3-yl]acetamide] | ~5000 | ~40
2 | CC(=O)Nc1cc(-c2cncc(NS(=O)(=O)c3c(C)nn(C)c3Cl)c2)n(C)n1 [Example 3, N-{5-[5-(5-chloro-1,3-dimethyl-1H-pyrazol-4-ylsulphonamido)pyridin-3-yl]-1-methyl-1H-pyrazol-3-yl}acetamide] | ~500 | ~2
